# Results as given in ChEMBL document CHEMBL4130465, “Berchemiosides A-C, 2-Acetoxy-ω-phenylpentaene Fatty Acid Triglycosides from the Unripe Fruits of Berchemia berchemiifolia” (J Nat Prod, 2017).
# Activity calls are given as the source filed them. The calls are words filed in the database; no cut-off is given here.
# Experiments:
# HCT-116 [1] = assay: Cytotoxicity against human HCT116 cells up to 100 uM after 48 hrs by MTT assay; assay type: functional, cell-based
# HCT-116 [2] = assay: Cytotoxicity against human HCT116 cells after 48 hrs by MTT assay; assay type: functional, cell-based; details: HCT-116, 48 h
# [3] = target: Xanthine dehydrogenase/oxidase (Homo sapiens, UniProt P47989); assay: Inhibition of xanthine oxidase (unknown origin) using xanthine as substrate pretreated for 10 mins followed by substrate addition measured every 2 mins for 6 mins; details: for inhibition (INH): human, 0.1 h
# Chain of Xanthine dehydrogenase/oxidase (P47989 whole entry): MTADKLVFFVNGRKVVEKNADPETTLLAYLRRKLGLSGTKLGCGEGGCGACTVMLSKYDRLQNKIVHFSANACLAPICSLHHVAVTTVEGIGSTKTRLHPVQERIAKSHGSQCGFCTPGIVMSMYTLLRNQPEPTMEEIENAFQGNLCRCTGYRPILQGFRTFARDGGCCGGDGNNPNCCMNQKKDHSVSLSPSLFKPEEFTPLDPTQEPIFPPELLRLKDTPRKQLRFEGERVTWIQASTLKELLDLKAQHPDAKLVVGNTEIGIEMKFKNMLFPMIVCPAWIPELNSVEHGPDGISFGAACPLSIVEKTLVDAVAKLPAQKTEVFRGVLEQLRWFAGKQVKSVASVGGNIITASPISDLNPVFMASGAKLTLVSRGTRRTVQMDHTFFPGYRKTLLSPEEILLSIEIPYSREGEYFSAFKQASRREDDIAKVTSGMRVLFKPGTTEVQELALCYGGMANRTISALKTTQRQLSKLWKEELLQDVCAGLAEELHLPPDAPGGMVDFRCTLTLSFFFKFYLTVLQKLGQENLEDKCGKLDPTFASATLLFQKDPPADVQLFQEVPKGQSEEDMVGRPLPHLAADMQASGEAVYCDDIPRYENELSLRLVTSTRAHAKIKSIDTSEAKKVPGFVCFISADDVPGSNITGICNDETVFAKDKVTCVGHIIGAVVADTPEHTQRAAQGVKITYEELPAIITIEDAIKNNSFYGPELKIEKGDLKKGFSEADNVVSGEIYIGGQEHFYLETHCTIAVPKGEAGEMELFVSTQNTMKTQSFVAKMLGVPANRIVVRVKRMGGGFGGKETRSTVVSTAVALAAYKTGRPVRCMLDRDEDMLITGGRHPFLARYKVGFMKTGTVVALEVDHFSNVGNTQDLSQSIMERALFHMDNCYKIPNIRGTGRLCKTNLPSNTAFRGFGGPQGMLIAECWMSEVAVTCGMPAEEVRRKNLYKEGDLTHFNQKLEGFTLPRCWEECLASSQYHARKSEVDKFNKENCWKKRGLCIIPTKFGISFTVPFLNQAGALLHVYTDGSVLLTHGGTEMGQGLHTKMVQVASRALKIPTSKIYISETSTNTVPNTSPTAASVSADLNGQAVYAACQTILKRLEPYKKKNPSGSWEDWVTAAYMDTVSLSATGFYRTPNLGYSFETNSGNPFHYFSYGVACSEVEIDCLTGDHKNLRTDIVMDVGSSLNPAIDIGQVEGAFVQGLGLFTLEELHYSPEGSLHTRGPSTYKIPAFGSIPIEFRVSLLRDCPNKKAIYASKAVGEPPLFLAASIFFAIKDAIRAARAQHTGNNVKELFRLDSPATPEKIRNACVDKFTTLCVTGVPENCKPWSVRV
inhibition (INH) [3],Structure (SMILES),Activity (HCT-116 [1]),further results
–,CC(=O)O[C@H](CCC/C=C/C=C/C=C/C=C/C=C/c1ccc(O[C@@H]2O[C@H](CO[C@@H]3O[C@@H](C)[C@H](O)[C@@H](O[C@@H]4O[C@H](COC(=O)/C=C/c5ccccc5)[C@@H](O)[C@H](O)[C@H]4O)[C@H]3O)[C@@H](O)[C@H](O)[C@H]2O)cc1)C(=O)O,inactive,–
–,CC(=O)O[C@@]12CO[C@@H]1C[C@H](O)[C@@]1(C)C(=O)[C@H](O)C3=C(C)[C@@H](OC(=O)[C@H](O)[C@@H](NC(=O)OC(C)(C)C)c4ccccc4)C[C@@](O)([C@@H](OC(=O)c4ccccc4)[C@H]21)C3(C)C [DOCETAXEL ANHYDROUS],–,IC50 (HCT-116 [2]): 0.13 µM
Not Active,O=C1C[C@H](c2ccc(O)c(O)c2)Oc2cc(O)cc(O[C@@H]3O[C@H](CO)[C@@H](O)[C@H](O)[C@H]3O[C@@H]3O[C@H](CO)[C@@H](O)[C@H](O)[C@H]3O)c21,–,–
Not Active,COc1cc2oc(-c3ccc(O)cc3)cc(=O)c2c(O)c1[C@@H]1O[C@H](CO)[C@@H](O)[C@H](O)[C@H]1O [SWERTISIN],–,–
Not Active,COc1cc2oc(-c3ccc(O)c(O)c3)cc(=O)c2c(O)c1[C@@H]1O[C@H](CO)[C@@H](O)[C@H](O)[C@H]1O,–,–
–,CC(=O)O[C@H](CCC/C=C/C=C/C=C\C=C/C=C/c1ccc(O[C@@H]2O[C@H](CO[C@@H]3O[C@@H](C)[C@H](O)[C@@H](O[C@@H]4O[C@H](CO)[C@@H](O)[C@H](O)[C@H]4O)[C@H]3O)[C@@H](O)[C@H](O)[C@H]2O)cc1)C(=O)O,inactive,–
–,C[C@@H]1O[C@@H](OC[C@H]2O[C@@H](Oc3ccc(C=O)cc3)[C@H](O)[C@@H](O)[C@@H]2O)[C@H](O)[C@H](O[C@@H]2O[C@H](COC(=O)/C=C/c3ccccc3)[C@@H](O)[C@H](O)[C@H]2O)[C@H]1O,inactive,–
–,CC(=O)O[C@H](CCC/C=C/C=C/C=C/C=C/C=C/c1ccc(O[C@@H]2O[C@H](CO[C@@H]3O[C@@H](C)[C@H](O)[C@@H](O[C@@H]4O[C@H](COC(=O)/C=C/C=C/c5ccccc5)[C@@H](O)[C@H](O)[C@H]4O)[C@H]3O)[C@@H](O)[C@H](O)[C@H]2O)cc1)C(=O)O,inactive,–
Not Active,O=c1c(O[C@@H]2O[C@H](CO)[C@@H](O)[C@H](O)[C@H]2O[C@@H]2O[C@H](CO)[C@@H](O)[C@H](O)[C@H]2O)c(-c2ccc(O)c(O)c2)oc2cc(O)cc(O)c12,–,–
–,O=C1C[C@H](c2ccc(O)cc2)Oc2cc(O)cc(O[C@@H]3O[C@H](CO)[C@@H](O)[C@H](O)[C@H]3O[C@@H]3O[C@H](CO)[C@@H](O)[C@H](O)[C@H]3O)c21,–,IC50 [3]: 95.4 µM
Not Active,O=C1C[C@@H](c2ccc(O)c(O)c2)Oc2cc(O)cc(O[C@@H]3O[C@H](CO)[C@@H](O)[C@H](O)[C@H]3O[C@@H]3O[C@H](CO)[C@@H](O)[C@H](O)[C@H]3O)c21,–,–
